From ChEMBL document CHEMBL1148408, “Inhibitors of serine proteases as potential therapeutic agents: the road from thrombin to tryptase to cathepsin G” (J Med Chem, 2004) come the findings set out here.

Each structure is given as a SMILES string.

For series [1], the target named is T1, Prothrombin (Homo sapiens, UniProt P00734). In words: Binding affinity to human thrombin.
The test system of another series is Oryctolagus cuniculus. In words: In vivo antithrombotic activity using rabbit thrombosis model. In kind it is functional.
For series [2], the target named is T2, Cathepsin G (Homo sapiens) (UniProt P08311).
T2 sequence (whole entry): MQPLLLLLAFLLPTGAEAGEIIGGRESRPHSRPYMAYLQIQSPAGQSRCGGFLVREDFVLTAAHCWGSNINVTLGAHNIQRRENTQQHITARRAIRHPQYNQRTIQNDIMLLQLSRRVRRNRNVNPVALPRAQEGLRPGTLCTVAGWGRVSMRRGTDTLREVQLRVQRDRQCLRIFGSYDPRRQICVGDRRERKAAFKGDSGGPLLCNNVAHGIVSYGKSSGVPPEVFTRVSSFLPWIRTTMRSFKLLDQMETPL
Put plainly: Inhibitory activity against human Cathepsin G at 100 uM; Not active.

The next series has as its target T3, Cathepsin G (Homo sapiens, UniProt P08311).
T3 sequence (P08311 whole entry): T2 sequence (whole entry)
Put plainly: Inhibitory activity against human Cathepsin G.

The next series addresses Tryptase (Homo sapiens, UniProt Q9BZJ3+Q15661+Q9NRR2). Put plainly: Binding affinity against human alpha tryptase. In kind it is protein assay.
The target in series [3] is T1, Prothrombin. In words: Binding activity against human alpha thrombin.
A short description of series [4]: Oral bioavailability. In kind it is ADME, organism-based. As to conditions: eutheria, in vivo.
Another series concerns Canis familiaris. In words: In vivo antithrombotic activity using canine thrombosis model. In kind it is functional. As to conditions: Canis lupus familiaris.

The term Ki denotes the dissociation constant of the complex between target and ligand, obtained from inhibition or displacement. Lower therefore signals tighter binding. As to `CN[C@H](Cc1ccccc1)C(=O)N1CCC[C@H]1C(=O)N[C@@H](CCCNC(=N)N)C(=O)c1nccs1`, on Prothrombin [1], the Ki came out at 2.1 nM.
A word on the ED50: it is the dose that gives a 50% effect, or the effect in half of the subjects. Lower therefore signals an effect at a small dose. In turn, `CN[C@H](Cc1ccccc1)C(=O)N1CCC[C@H]1C(=O)N[C@H](C=O)CCCNC(=N)N` returned an ED50 in the series with Oryctolagus cuniculus of 0.13 mg/kg.
The term inhibition denotes the share of the control response that was lost under treatment. Read a low inhibition as a weak effect. `O=P(O)(O)C(Cc1ccc2ccccc2c1)c1cccc2ccccc12` (stereo not drawn) gave an inhibition in series [2] of under 50%.
Broadly, the IC50 is the concentration at which inhibition is half-maximal. Higher therefore signals lower potency. In the case of `CN(Cc1ccccc1)C(=O)c1cc2ccccc2cc1C(=O)C(c1cccc2ccccc12)P(=O)(O)O` (stereo not drawn), the IC50 against Cathepsin G amounted to 1000 nM.
Compound `CN(CC(=O)NCCc1ccccc1)C(=O)c1cc2ccccc2cc1C(=O)C(c1cccc2ccccc12)P(=O)(O)O` (stereo not drawn) showed an IC50 at Cathepsin G of 1300 nM.
In the case of `O=C(c1cccc2ccccc12)C(c1cccc2ccccc12)P(=O)(O)O` (stereo not drawn), in series [2], the inhibition is under 50%.
Consider `CN[C@H](Cc1ccccc1)C(=O)N1CCC[C@H]1C(=O)N[C@@H](CCCN=C(N)N)C(=O)c1nc(O)c2ccccc2n1`, for which affinity at Prothrombin [1] was put at a Ki of 15 nM.
`N=C(N)NCCC[C@H](NC(=O)C1CCCC1)C(=O)c1nc2ccccc2s1` came in with a Ki on Tryptase of 88 nM.
Consider `N=C(N)NCCC[C@@H]1NC(=O)[C@@H]2CCCN2C(=O)[C@@H](NC=O)NC(=O)CCCCCCNC(=O)C1=O`, for which, at Prothrombin [1], the Ki stood at 260 nM.
On to `CN[C@H](Cc1ccccc1)C(=O)N1CCC[C@H]1C(=O)N[C@@H](CCCNC(=N)N)C(=O)c1nc2ccccc2[nH]1`, for which the affinity at Prothrombin [1], expressed as Ki, was 9.6 nM.
Still for that read-out and setting: under `CN[C@H](Cc1ccccc1)C(=O)N1CCC[C@H]1C(=O)N[C@@H](CCCN=C(N)N)C(=O)c1nc2ccccc2o1` stands 6.2 nM.
With `CN[C@@H](C(=O)N1CCC[C@H]1C(=O)N[C@@H](CCCN=C(N)N)C(=O)c1nc2ccccc2s1)C(c1ccccc1)c1ccccc1`, on Prothrombin [1], the affinity corresponds to a Ki of 0.00065 nM. This compound also registered an IC50 at Prothrombin [3] of 4.5 nM.
As a reminder, the bioavailability is the share of a dose that reaches the circulation, judged against a reference dose that is usually intravenous. Higher therefore signals good availability. `CN[C@H](Cc1ccccc1)C(=O)N1CCC[C@H]1C(=O)N[C@@H](CCCN=C(N)N)C(=O)c1nc2ccccc2s1` displayed a Ki on Prothrombin [1] of 0.2 nM. The compound also yielded a bioavailability in series [4] of 1%. This compound came in with an ED50 in the series with Oryctolagus cuniculus of 0.29 mg/kg.
In turn, `O=C(c1ccc2ccccc2c1)C(c1ccc2ccccc2c1)P(=O)(O)O` (stereo not drawn) showed an inhibition in series [2] of under 50%.
The same measure, in the same setting: under `O=P(O)(O)C(c1cccc2ccccc12)S(=O)(=O)c1ccc2ccccc2c1` (stereo not drawn) stands under 50%.
The compound `N=C(N)NCCC[C@@H]1NC(=O)C2CCCN2C(=O)[C@@H](NCCc2ccccc2)CNC(=O)/C=C/[C@H](Cc2ccc(O)cc2)NC(=O)[C@@H](Cc2ccccc2)NC(=O)C1=O` (stereo partly drawn) yielded a Ki at Prothrombin [1] of 1.5 nM.
For the compound `O=P(O)(O)C(c1cccc2ccccc12)C(O)c1ccc2ccccc2c1` (stereo not drawn), the inhibition in series [2] is under 50%.
With `O=C(Cc1ccc2ccccc2c1)C(c1cccc2ccccc12)P(=O)(O)O` (stereo not drawn), the inhibition in series [2] is under 50%.
For the compound `CN[C@H](Cc1ccccc1)C(=O)N1CCC[C@H]1C(=O)N[C@@H](CCCNC(=N)N)C(=O)c1nc2ccc(C(=O)O)cc2s1`, the bioavailability in series [4] came to 3%. For the same compound, the values for the ED50 in the series with Oryctolagus cuniculus and in the series on Canis familiaris were 0.3 mg/kg and 0.47 mg/kg, respectively.
The compound `O=C(c1ccc2ccccc2c1)C(c1cccc2ccccc12)P(=O)(O)O` (stereo not drawn) came in with an IC50 on Cathepsin G of 4100 nM.
Consider `CC(C(=O)c1ccc2ccccc2c1)(c1cccc2ccccc12)P(=O)(O)O` (stereo not drawn), for which the inhibition in series [2] is under 50%.
`CN(CC(=O)NCC(c1ccccc1)c1ccccc1)C(=O)c1cc2ccccc2cc1C(=O)C(c1cccc2ccccc12)P(=O)(O)O` (stereo not drawn) returned an IC50 on Cathepsin G of 500 nM.
`N=C(N)NCCC[C@@H]1NC(=O)C2CCCN2C(=O)[C@@H](NC(=O)Cc2ccccc2)CNC(=O)/C=C/[C@H](Cc2ccc(O)cc2)NC(=O)[C@@H](Cc2ccccc2)NC(=O)C1=O` (stereo partly drawn) displayed a Ki at Prothrombin [1] of 3.1 nM.
Still for that read-out and setting: next, `N=C(N)NCCC[C@@H]1NC(=O)C2CCCN2C(=O)[C@@H](NC=O)CNC(=O)/C=C/[C@H](Cc2ccc(O)cc2)NC(=O)[C@@H](Cc2ccccc2)NC(=O)C1=O` (stereo partly drawn): 4.1 nM.
Same read-out and setting: next, `N=C(N)NCCC[C@@H]1NC(=O)C2CCCN2C(=O)[C@@H](Cc2ccccc2)NC(=O)CCCCCCCNC(=O)C1=O` (stereo partly drawn): 24 nM.
`CC(=O)N1C[C@H](O)C[C@H]1C(=O)N[C@@H](CCCN=C(N)N)C(=O)c1nc2ccccc2s1`: the Ki on Tryptase is reported as 10 nM.
In turn, `CN[C@H](Cc1ccccc1)C(=O)N1CCC[C@H]1C(=O)N[C@@H](CCCN=C(N)N)C(=O)c1nccn1C` gave an inhibitory constant (Ki) at Prothrombin [1] of 200 nM.
Compound `O=C(c1ccc2ccccc2c1)C(c1ccccc1)P(=O)(O)O` (stereo not drawn) showed an inhibition in series [2] of under 50%.
